Experimental data as given in patent US7030087B2, “Synthetic approach to designed chemical structures” (priority 1996, dated 2006).

Assays:
P. aeruginosa = test: Bactericidal activity assay; format: cell-based, Pseudomonas aeruginosa type 1
In short: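 Log-phase P. aeruginosa type 1 (smooth clinical isolate) was grown in brain heart infusion broth, washed, and diluted 1:10 from about 3×10^8 CFU/ml into 0.08M citrate phosphate buffer at pH 5.6 or pH 7.0. Peptides were tested from about […] to 4.1×10^−9M, with LD50 derived from dose response by linear regression.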

EC (endothelial cells) = test: EC proliferation, 3[H]thymidine incorporation assay; format: cell-based
Protocol: Since the in vivo situation of tumor associated EC involves the low expression or even absence of ICAM-1, the next set of experiments aimed to study the ability to reinduce ICAM-I expression after bFBF preincubation. […] In these experiments, HUVEC were pretreated for 3 days with bFGF, subsequently PF4 was added for 3 days and, where indicated in the last 16 hours of culture 4 ng/ml TNFα was added. Human umbilical vein derived endothelial cells (HUVEC) were harvested from normal human umbilical cords by perfusion with 0.125% trypsin/EDTA as described previously. Cells were cultured in fibronectin (FN) coated tissue culture flasks in culture medium (RPMI-1640 with 20% human serum (HS), supplemented with 2 mM glutamine and 100 U/ml penicillin and 0.1 mg/ml streptomycin). Immunofluorescence using indirect PE-conjugated reagents required three separate incubations. 1×10^5 EC were fixed for 1 hour in 1% paraformaldehyde, resuspended in 20 μl appropriately diluted Mab and incubated for 1 hour on ice. Subsequently, cells were washed two times in PBS/BSA (0.1%) and incubated for another 30 minutes with biotinylated rabbit-anti-mouse Ig (Dako, Glostrup, Denmark). After another 2 washings, cells were incubated with streptavidin-phycoerythrin conjugate (Dako). Stained cells were analyzed on a FACScan flowcytometer. Data analysis was performed using PCLysys software (Becton Dickinson, Mountain View, Calif.). Statistical significance of observed differences was determined using the Student's t-test.
EC proliferation was measured using a ^3[H]thymidine incorporation assay. EC were seeded in flatbottomed 96-well tissue culture plates (5000 cells/well) and grown for 3 days, in culture medium. In some cultures the proliferation of EC was enhanced by incubation with 10 ng/ml bFGF. During the list 6 hours of the assay, the culture was pulsed with 0.5 μCi [methyl-^3H]thymidine/well. Results are expressed as the arithmetic mean counts per minute (cpm) of triplicate cultures.

HUVEC = test: Leukocyte/EC adhesion assay; format: cell-based, human; conditions: bFGF 10 ng/ml + PF4 100 μg/ml
Protocol: Functional impact for the observed phenomena was provided by leukocyte/EC adhesion assays as described earlier (Griffioen et al. Cancer Res. 56:1111–1117, 1996). […] TNF mediated upregulation of adhesion to bFGF preincubated HUVEC in the presence of PF4 was similar to the adhesion to TNF treated control cells. PHA-activated peripheral blood T lymphocyte were adhered for 1 hour at 37° C. to TNF-α (4 ng/ml), bFGF (10 ng/ml)+PF4 (100 μg/ml) treated, or control (HUVEC). Non-adhering cells were removed and adhered cells were enumerated by an inverted microscope. Values of one representative experiment out of three are expressed as numbers of adhered cells per high power field. Statistical significance is determined by the Student's t-test.

platelet factor 4 [PF4]
Bactericidal Activity, % killing (P. aeruginosa; 1.2 × 10^−7 M Peptide, 5 × 105 P. aeruginosa): 0%
Bactericidal Activity, % killing at the effective dose (P. aeruginosa; at the Ed for the same peptide): 19%
Bactericidal Activity, Ed, Effective M dose (P. aeruginosa; dose at which the % in brackets was found): 1.5 µM
(3H)-thymidine incorporation (EC (endothelial cells); expt 1, 1 μg/ml, 10 ng/ml bFGF, medium 28815 ± 1007): 28782 ± 815 cpm
(3H)-thymidine incorporation (EC (endothelial cells); expt 1, 1 μg/ml, no bFGF, medium 4044 ± 206): 4656 ± 456 cpm
(3H)-thymidine incorporation (EC (endothelial cells); expt 1, 10 μg/ml, 10 ng/ml bFGF, medium 28815 ± 1007): 23868 ± 402 cpm
(3H)-thymidine incorporation (EC (endothelial cells); expt 1, 10 μg/ml, no bFGF, medium 4044 ± 206): 4066 ± 351 cpm
(3H)-thymidine incorporation (EC (endothelial cells); expt 1, 100 μg/ml, 10 ng/ml bFGF, medium 28815 ± 1007): 4655 ± 421 cpm
(3H)-thymidine incorporation (EC (endothelial cells); expt 1, 100 μg/ml, no bFGF, medium 4044 ± 206): 1651 ± 172 cpm
(3H)-thymidine incorporation (EC (endothelial cells); expt 2 (second, r19), 1 μg/ml, 10 ng/ml bFGF, medium 52808 ± 4092): 43524 ± 5318 cpm
(3H)-thymidine incorporation (EC (endothelial cells); expt 2 (second, r19), 1 μg/ml, no bFGF, medium 6780 ± 713): 6171 ± 1227 cpm
(3H)-thymidine incorporation (EC (endothelial cells); expt 2 (second, r19), 10 μg/ml, 10 ng/ml bFGF, medium 52808 ± 4092): 8337 ± 704 cpm
(3H)-thymidine incorporation (EC (endothelial cells); expt 2 (second, r19), 10 μg/ml, no bFGF, medium 6780 ± 713): 3547 ± 317 cpm
(3H)-thymidine incorporation (EC (endothelial cells); expt 2 (second, r19), 100 μg/ml, 10 ng/ml bFGF, medium 52808 ± 4092): 1654 ± 375 cpm
(3H)-thymidine incorporation (EC (endothelial cells); expt 2 (second, r19), 100 μg/ml, no bFGF, medium 6780 ± 713): 947 ± 170 cpm
bFGF mediated inhibition of leukocyte adhesion to cultured HUVEC (in words) (HUVEC): completely abolished
